Ends that are not written are not given here. Peptide text beside a SMILES is read from it. * marks the point of attachment. X1 = CC(C)C[C@@H](CN[C@@H](CCCNC(=N)N)C(=O)N[C@@H](Cc1ccccc1)C(N)=O)N*
Assays:
[1] = biological target: receptor preparation (membrane fraction of Ascaris suum body wall muscle), AF2 binding sites; test: Displacement of radioactive AF2 ([125I]AF2) in a receptor binding assay
Method: Adult female Ascaris suum, swine intestinal parasites, are collected in an abattoir after their removal from the intestine using pressurized water. Healthy specimens over 25 cm are selected, rinsed and placed in Ascaris Ringer's Solution (ARS: 4 mM NaCl, 5.9 mM CaCl2, 4.9 mM MgCl2, 5 mM Tris (C4 H11 NO3), 125 mM NaC2 H3 O2, 24.5 mM KCl, pH=7.4) at 37° C. Specimens are placed in a thermos filled with 37C Ascaris Ringer's solution and immediately air shipped to our laboratory. Upon arrival they are placed in fresh ARS (changed daily) and maintained at 37° C. for up to 3-4 days prior to use.
Ascaris suum body wall tissue (muscle) is dissected out by pinning each specimen in a dissection tray, opening the worm along its entire length at the lateral line with a scalpel, removing the intestine and ovaries and then scraping the muscle from the cuticle. One worm yields approximately 1.0 g tissue. Tissue collected is flash frozen in liquid nitrogen and stored at -80° C. until needed.
Membrane suspension for the binding assay is prepared as follows. […]
Each replicate is one well of a standard 96-well plate and has a volume of 200 μl containing 15 ug protein (preparation described above). […] The plate is shaken on a rotary shaker for 2 hours and then counted on a Top Count® scintillation counter. […]

A. suum muscle strips = settings: cited from earlier work; for Threshold Concentration (ND class): highest concentration 10 μM; for Threshold Concentration: lowest tested concentration that detectably altered tension and/or contractile activity in at least half the strips
[2] = tested on: innervated Ascaris suum muscle preparation; test: Potency evaluation bioassay: muscle tension and contractile frequency of innervated Ascaris suum muscle preparation; settings: for Tension: 1 nM peptide, mean
Method: AF2 and iodinated AF2 were evaluated in a bioassay using an innervated Ascaris suum muscle preparation and potency was estimated by measuring the physiological effects of the peptides on A. suum muscle tension and contractile frequency.
An adult female was bisected transversely just anterior to the oviduct. A 2 cm segment was obtained anterior from the initial cut and that section was placed immediately under 37° C. medium in a dissection chamber. Two muscle strips were then prepared from each segment. Strips were prepared by cutting the segment longitudinally along one lateral line, removing the gut and then severing the opposite lateral line. Steel wires, 4 cm long, 0.25 mm diameter, with terminal sharpened hooks, were inserted through the muscle strip approximately 3 mm and centered from each end. These hooks were used to suspend the muscle strip between an isometric force transducer and a stationary holdfast in a 37° C. water jacketed incubation chamber filled with suppressive Ascaris Ringer's Solution constantly bubbled with N2. The transducer was connected to a Gould chart recorder via a Gould Universal amplifier.
The muscle tension on each preparation was "normalized" to zero five minutes before the addition of a test compound or vehicle. Compounds or vehicles were introduced from stock solutions and assayed at a final concentration of 1 nM in replicate (n=6). […] Inhibition is manifested as a drop in baseline tension (compared to control), while excitation is defined as a marked rise in baseline tension, often superimposed with transient muscle contractions (spiking). In order to estimate the net change in muscle tension of these preparations, the midpoint of the spike was estimated visually. Muscle tension data were analyzed by analysis of variance.

Ascaris suum tissues = settings: tritium on leucine moiety; cited from earlier work

| Molecule | Threshold Concentration (ND class) (A. suum muscle strips) | Threshold Concentration (A. suum muscle strips) | also measured |
| --- | --- | --- | --- |
| CC(C)C[C@@H](CN[C@@H](CCCNC(=N)N)C(=O)N[C@@H](Cc1ccccc1)C(N)=O)NC(=O)[C@H](Cc1ccc(O)cc1)NC(=O)[C@H](CCC(=O)O)NC(=O)[C@H](Cc1c[nH]cn1)NC(=O)[C@@H](N)CCCCN [KHEYL*RFamide (reduced bond), KHEYL*RFamide] (H-KHEY-X1) | – | – | IC50 ([1]; displacement of radioactive AF2): 20 nM |
| ANEFIRF-NH2 | ND ("ND" means no detectable effect at 10 μM) | – | – |
| FIRFamide | ND ("ND" means no detectable effect at 10 μM) | – | – |
| KAEFIRF-NH2 | ND ("ND" means no detectable effect at 10 μM) | – | – |
| KNAFIRF-NH2 | – | 0.1 µM | – |
| KNEAIRF-NH2 | – | 3.2 µM | – |
| KNEFARF-NH2 | – | 10 µM | – |
| KNEFIAF-NH2 | – | 10 µM | – |
| KNEFIRA-NH2 | ND ("ND" means no detectable effect at 10 μM) | – | – |
| KNEYIRF-NH2 | – | 3.2 µM | – |
| Lys-His-Glu-Tyr^--I -Leu-Arg-Phe-amide [Iodo AF2] | – | – | specific binding ([1]; radioligand in current embodiment of binding assay): > 80%; type of response of muscle tension ([2]; 1 nM): biphasic responses (short term inhibition followed by long term excitation); Tension ([2]; 5 min after peptide addition): -430 mg; Tension ([2]; 15 min after peptide addition): -403 mg; Tension ([2]; 30 min after peptide addition): -237 mg; Tension ([2]; 60 min after peptide addition): -437 mg; Spike amplitude ([2]; 1 nM, FIG. 1): significant increase |
| NEFIRF-NH2 | ND ("ND" means no detectable effect at 10 μM) | – | – |
| [^3 H]PF1: PF1 (Ser-Asp-Pro-Asn-Phe-Leu-Arg-Phe-NH2 ; SDPNFLRFamide) radiolabelled by exchanging a tritium atom for a hydrogen on the leucine moiety (SDPNFLRF-NH2; also: tritium label on Leu6) | – | – | specific binding (Ascaris suum tissues): 40% |

Reference: patent US5859188A, “Method for discovering novel anthelmintic compounds” (priority 1997, dated 1999)
